We go through five cell lines from the supplement of paper PMC10307832.

Assay in all cases: relative viability (nuclei count vs DMSO), 5 days (fraction); higher = more cells survive
Compound in the assay “R406 + Navitoclax”: COc1cc(Nc2ncc(F)c(Nc3ccc4c(n3)NC(=O)C(C)(C)O4)n2)cc(OC)c1OC [R406] + CC1(C)CCC(c2ccc(Cl)cc2)=C(CN2CCN(c3ccc(C(=O)NS(=O)(=O)c4ccc(N[C@H](CCN5CCOCC5)CSc5ccccc5)c(S(=O)(=O)C(F)(F)F)c4)cc3)CC2)C1 [Navitoclax] (partner 0.5 µM)
Summed up:
(§1)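 Relative viability divides the nuclei count in treated wells by that in vehicle wells. Lung cancer cell lines were seeded in 1536-well plates, dosed by pin tool the next day, and fixed and stained after 5 days in one step with final 0.05% Triton X-100, 1% formaldehyde and 1 ug/ml Hoechst. Dosing was a single drug or a fixed anchor-drug dose plus five library-drug doses (not always all listed) in √10 steps, and values are medians of duplicate plates imaged at 4×.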

Compound in the assay “Daporinad + Phenformin”: O=C(/C=C/c1cccnc1)NCCCCC1CCN(C(=O)c2ccccc2)CC1 [Daporinad] + N=C(N)NC(=N)NCCc1ccccc1 [Phenformin] (partner 250 µM)
Summed up:
as §1

Compound in the assay “R406 + Bortezomib”: COc1cc(Nc2ncc(F)c(Nc3ccc4c(n3)NC(=O)C(C)(C)O4)n2)cc(OC)c1OC [R406] + CC(C)C[C@H](NC(=O)[C@H](Cc1ccccc1)NC(=O)c1cnccn1)B(O)O [Bortezomib] (partner 0.002 µM)
Summed up: as §1

Compound in the assay “R406 + Pemetrexed”: COc1cc(Nc2ncc(F)c(Nc3ccc4c(n3)NC(=O)C(C)(C)O4)n2)cc(OC)c1OC [R406] + Nc1nc2[nH]cc(CCc3ccc(C(=O)N[C@@H](CCC(=O)O)C(=O)O)cc3)c2c(=O)[nH]1 [Pemetrexed] (partner 0.2 µM)
Summed up: as §1

Turning to LXF-289, the relative viability worked out at 0.942 with R406 + Navitoclax (first compound 0.08 µM); 1.01 with R406 + Navitoclax (first compound 0.253 µM); 1 with R406 + Navitoclax (first compound 0.8 µM); 0.931 with R406 + Navitoclax (first compound 2.53 µM); 0.251 with R406 + Navitoclax (first compound 8 µM); 0.467 with Daporinad + Phenformin (first compound 0.0005 µM). For the same cell line, the relative viability with Daporinad + Phenformin (first compound 0.001581 µM) is 0.555; in the assay with Daporinad + Phenformin (first compound 0.005 µM), 0.559; in the assay with Daporinad + Phenformin (first compound 0.01581 µM) it was 0.579; with R406 + Bortezomib (first compound 0.08 µM), 0.913; with R406 + Bortezomib (first compound 0.253 µM), 0.953; in the assay with R406 + Bortezomib (first compound 0.8 µM) it was 1.01. In addition, the relative viability turned out to be 1.04 with R406 + Bortezomib (first compound 2.53 µM); 0.483 with R406 + Bortezomib (first compound 8 µM); 0.874 with R406 + Pemetrexed (first compound 0.08 µM); 0.912 in the assay with R406 + Pemetrexed (first compound 0.253 µM); 0.908 in the assay with R406 + Pemetrexed (first compound 0.8 µM); 0.887 with R406 + Pemetrexed (first compound 2.53 µM). Further, in the assay with R406 + Pemetrexed (first compound 8 µM), the relative viability amounted to 0.725.

Turning to NCI-H23, the relative viability with R406 + Navitoclax (first compound 0.08 µM) is 0.712; with R406 + Navitoclax (first compound 0.253 µM) it was 0.884; with R406 + Navitoclax (first compound 0.8 µM), 1.07; with R406 + Navitoclax (first compound 2.53 µM), 0.733; in the assay with R406 + Navitoclax (first compound 8 µM), 0.518; with Daporinad + Phenformin (first compound 0.0005 µM) it was 0.726. Besides, the relative viability with Daporinad + Phenformin (first compound 0.001581 µM) was found to be 0.773; in the assay with Daporinad + Phenformin (first compound 0.005 µM) it was 0.829; with Daporinad + Phenformin (first compound 0.01581 µM) it was 0.399; with R406 + Bortezomib (first compound 0.08 µM), 0.953; in the assay with R406 + Bortezomib (first compound 0.253 µM) it was 1.45; with R406 + Bortezomib (first compound 0.8 µM), 1.35. Also, the relative viability with R406 + Bortezomib (first compound 2.53 µM) came to 0.906; with R406 + Bortezomib (first compound 8 µM), 0.278; in the assay with R406 + Pemetrexed (first compound 0.08 µM), 0.565; with R406 + Pemetrexed (first compound 0.253 µM), 0.806; with R406 + Pemetrexed (first compound 0.8 µM), 0.782; with R406 + Pemetrexed (first compound 2.53 µM), 0.17. Besides, the relative viability in the assay with R406 + Pemetrexed (first compound 8 µM) was 0.248.

In the case of NCI-H322M, the relative viability in the assay with R406 + Navitoclax (first compound 0.08 µM) came to 1.13; with R406 + Navitoclax (first compound 0.253 µM), 1.23; with R406 + Navitoclax (first compound 0.8 µM), 1.28; with R406 + Navitoclax (first compound 2.53 µM), 0.862; with R406 + Navitoclax (first compound 8 µM), 0.534; in the assay with Daporinad + Phenformin (first compound 0.0005 µM), 0.793. Also, the relative viability is 0.726 in the assay with Daporinad + Phenformin (first compound 0.001581 µM); 0.686 with Daporinad + Phenformin (first compound 0.005 µM); 0.436 with Daporinad + Phenformin (first compound 0.01581 µM); 1.19 with R406 + Bortezomib (first compound 0.08 µM); 0.994 in the assay with R406 + Bortezomib (first compound 0.253 µM); 1.19 in the assay with R406 + Bortezomib (first compound 0.8 µM). Also, the relative viability with R406 + Bortezomib (first compound 2.53 µM) came out at 0.534; with R406 + Bortezomib (first compound 8 µM), 0.803; with R406 + Pemetrexed (first compound 0.08 µM) it was 0.532; with R406 + Pemetrexed (first compound 0.253 µM), 0.596; with R406 + Pemetrexed (first compound 0.8 µM), 0.63; in the assay with R406 + Pemetrexed (first compound 2.53 µM), 0.466. Moreover, the relative viability with R406 + Pemetrexed (first compound 8 µM) was found to be 0.396.

Consider NCI-H441, for which the relative viability stood at 0.584 with R406 + Navitoclax (first compound 0.253 µM); 0.818 with R406 + Navitoclax (first compound 0.8 µM); 0.446 with R406 + Navitoclax (first compound 8 µM); 0.813 with Daporinad + Phenformin (first compound 0.0005 µM); 0.82 with Daporinad + Phenformin (first compound 0.001581 µM); 0.883 with Daporinad + Phenformin (first compound 0.005 µM). Also, the relative viability turned out to be 0.734 with Daporinad + Phenformin (first compound 0.01581 µM); 0.383 in the assay with R406 + Bortezomib (first compound 0.253 µM); 0.713 with R406 + Bortezomib (first compound 0.8 µM); 0.331 with R406 + Bortezomib (first compound 8 µM); 0.219 with R406 + Pemetrexed (first compound 0.08 µM); 0.261 with R406 + Pemetrexed (first compound 0.253 µM). In addition, the relative viability stood at 0.263 in the assay with R406 + Pemetrexed (first compound 0.8 µM), 0.257 in the assay with R406 + Pemetrexed (first compound 2.53 µM) and 0.234 with R406 + Pemetrexed (first compound 8 µM).

For NCI-H460, the relative viability with R406 + Navitoclax (first compound 0.08 µM) is 1.16; with R406 + Navitoclax (first compound 0.253 µM) it was 1.35; with R406 + Navitoclax (first compound 0.8 µM) it was 1.25; with R406 + Navitoclax (first compound 8 µM), 0.476; in the assay with Daporinad + Phenformin (first compound 0.0005 µM), 0.472; with Daporinad + Phenformin (first compound 0.001581 µM), 0.575. The relative viability with Daporinad + Phenformin (first compound 0.005 µM) was determined as 0.533; with Daporinad + Phenformin (first compound 0.01581 µM), 0.523; with R406 + Bortezomib (first compound 0.08 µM), 0.96; with R406 + Bortezomib (first compound 0.253 µM), 1.33; in the assay with R406 + Bortezomib (first compound 0.8 µM), 1.58; in the assay with R406 + Bortezomib (first compound 8 µM), 0.486. For the same cell line, the relative viability was found to be 0.064 with R406 + Pemetrexed (first compound 0.08 µM); 0.0593 in the assay with R406 + Pemetrexed (first compound 0.253 µM); 0.0591 in the assay with R406 + Pemetrexed (first compound 0.8 µM); 0.0591 with R406 + Pemetrexed (first compound 2.53 µM); 0.0556 in the assay with R406 + Pemetrexed (first compound 8 µM).
